Target: T1, Human Neutrophil Elastase (HNE) (Homo sapiens, UniProt P08246)
T1 construct: Human Neutrophil Elastase (HNE) purified from serum; purchased Calbiochem 324681; host or cells: purified from human serum (so in the source); not recombinant
T1 sequence (P08246 30-267): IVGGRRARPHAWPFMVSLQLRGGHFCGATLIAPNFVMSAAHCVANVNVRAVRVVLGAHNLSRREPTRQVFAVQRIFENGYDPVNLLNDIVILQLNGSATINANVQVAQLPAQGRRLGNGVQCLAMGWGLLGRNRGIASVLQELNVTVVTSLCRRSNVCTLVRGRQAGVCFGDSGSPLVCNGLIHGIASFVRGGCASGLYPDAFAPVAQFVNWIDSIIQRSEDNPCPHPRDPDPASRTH
Assay: Human Neutrophil Elastase Quenched-FRET Assay
Type: biochemical
Conditions: read-out: Inhibition of Human Neutrophil Elastase IC50
Method: Human Neutrophil Elastase Quenched-FRET Assay
The assay uses Human Neutrophil Elastase (HNE) purified from serum (Calbiochem art. 324681; Ref. Baugh, R J. et al., 1976, Biochemistry. 15, 836-841). HNB was stored in 50 mM NaOAc, 200 mM NaCl, pH 5.5 with added 30% glycerol at −20° C. The protease substrate used was Elastase Substrate V Fluorogenic, MeOSuc-AAPV-AMC (Calbiochem art. 324740; Ref. Castillo, M. J. et al., 1979, Anal. Biochem. 99, 53-64). The substrate was stored in DMSO at −20° C. The assay additions were as follows: Test compounds and controls were added to black 96-well flat-bottom plates (Greiner 655076), 1 μL in 100% DMSO, followed by 30 μL HNE in assay buffer with 0.01% TritonX-100. The assay buffer constitution was: 100 mM Tris (pH 7.5) and 500 mM NaCl. The enzyme and the compounds were incubated at room temperature for 15 minutes. Then 30 μl substrate in assay buffer was added The assay was stopped after 30 minutes incubation at room temperature by adding 60 μl stop solution (140 mM acetic acid, 200 mM sodium monochloroacetate, 60 mM sodium acetate, pH 4.3). Fluorescence was measured on a Wallac 1420 Victor 2 instrument at settings: Exitation 380 nm, Emission 460 nm. IC50 values were determined using xlfit curve fitting using model 205.

| IC50 [nM] | SMILES |
| --- | --- |
| 2030 | O=C(NCc1ccc2c(c1)CCO2)c1c[nH]c(=O)n(-c2cccc(C(F)(F)F)c2)c1=O [N-(2,3-Dihydro-1-benzofuran-5-ylmethyl)-2,4-dioxo-3-[3-(trifluoromethyl)phenyl]-1,2,3,4-tetrahydropyrimidine-5-carboxamide] |
| 701 | COc1cccc(CNC(=O)c2ccc(C)n(-c3cccc(C(F)(F)F)c3)c2=O)c1OC [N-(2,3-Dimethoxybenzyl)-6-methyl-2-oxo-1-[3-(trifluoromethyl)phenyl]-1,2-dihydropyridine-3-carboxamide] |
| 318 | Cc1cc(CNC(=O)c2ccc(C)n(-c3cccc(C(F)(F)F)c3)c2=O)no1 [6-Methyl-N-[(5-methylisoxazol-3-yl)methyl]-2-oxo-1-[3-(trifluoromethyl)phenyl]-1,2-dihydropyridine-3-carboxamide] |
| 353 | COc1ccc(CNC(=O)c2ccc(C)n(-c3cccc(Br)c3)c2=O)cc1 [1-(3-Bromophenyl)-N-(4-methoxybenzyl)-6-methyl-2-oxo-1,2-dihydropyridine-3-carboxamide] |

— patent publication US20060035938A1, “2-Pyridone derivatives as inhibitors of neutrophile elastase” (priority 2002, published 2006)
